The values below come from paper PMC7924852, “The Emericellipsins A–E from an Alkalophilic Fungus Emericellopsis alkalina Show Potent Activity against Multidrug-Resistant Pathogenic Fungi” (Journal of Fungi, 2021).

In experiment [1] the test system is Candida albicans 1402. Nature of the experiment: Broth microdilution MIC and MFC (CLSI). Format: cell-based. The following applies: Candida albicans 1402 clinical isolate; RPMI 1640 pH 7.0, 35 °C, 24 h; read-out: MIC. In general terms: Dilution methods test growth across graded concentrations, often in twofold steps.
The subject of experiment [2] is C. glabrata 1402. Nature of the experiment: Broth microdilution MIC and MFC (CLSI). The experiment is classed as cell-based. Conditions: Nakaseomyces glabratus, 1402, 24 h, pH 7.
Experiment [3] has as its system C. krusei 1447. Nature of the experiment: Broth microdilution MIC and MFC (CLSI). The following applies: C. krusei 1447; symbol R defined in Table S1. Format: cell-based.
In experiment [4] the test system is C. tropicalis 156. Nature of the experiment: Broth microdilution MIC and MFC (CLSI). Format: cell-based. Conditions: Candida tropicalis; C. tropicalis 156 clinical isolate; RPMI 1640 pH 7.0, 35 °C, 24 h; read-out: MIC.
Experiment [5] concerns C. parapsilosis 571. The experiment in a line: Broth microdilution MIC and MFC (CLSI). Conditions: Lodderomyces parapsilosis, 571, 24 h, pH 7. Format: cell-based.
Experiment [6] concerns Cryptococcus neoformans 297. Nature of the experiment: Broth microdilution MIC and MFC (CLSI). The experiment is classed as cell-based. Conditions: Cryptococcus neoformans 297 clinical isolate; RPMI 1640 pH 7.0, 35 °C, 24 h; read-out: MIC.
In experiment [7] the test system is C. laurentii 325m. The experiment in a line: Broth microdilution MIC and MFC (CLSI). Format: cell-based, Cr. laurentii. The following applies: Papiliotrema laurentii; C. laurentii 325m clinical isolate; RPMI 1640 pH 7.0, 35 °C, 24 h; read-out: MIC.
The test system of experiment [8] is clinical yeast isolates (Candida, Cryptococcus). Nature of the experiment: Broth microdilution MIC/MFC, pathogenic multidrug yeast strains. The experiment is classed as cell-based. Conditions: whole panel of Candida isolates.
Experiment [9] has as its system Aspergillus niger 1133m. Nature of the experiment: Sensititre YeastOne antifungal susceptibility test. The following applies: Aspergillus niger, 1133M. Format: cell-based.
The subject of experiment [10] is A. fumigatus 390m. Nature of the experiment: Sensititre YeastOne antifungal susceptibility test. The experiment is classed as cell-based. The following applies: Aspergillus fumigatus, 390M.
For experiment [11], the system named is A. terreus 497. The experiment in a line: Sensititre YeastOne antifungal susceptibility test. Format: cell-based. The following applies: Aspergillus terreus, 497.
For experiment [12], the system named is Candida albicans 1402. The experiment in a line: Sensititre YeastOne antifungal susceptibility test. Format: cell-based. The following applies: Candida albicans, 1402.
The test system of experiment [13] is C. glabrata 1402. The experiment in a line: Sensititre YeastOne antifungal susceptibility test. The experiment is classed as cell-based. Conditions: Nakaseomyces glabratus, 1402.
The test system of experiment [14] is C. krusei 1447. Nature of the experiment: Sensititre YeastOne antifungal susceptibility test. The experiment is classed as cell-based. The following applies: Sensititre YeastOne; C. krusei 1447.
Experiment [15] relates to C. tropicalis 156. Nature of the experiment: Sensititre YeastOne antifungal susceptibility test. Format: cell-based. The following applies: Candida tropicalis; Sensititre YeastOne; C. tropicalis 156 clinical isolate; read-out: MIC.
Experiment [16] relates to C. parapsilosis 571. Nature of the experiment: Sensititre YeastOne antifungal susceptibility test. The experiment is classed as cell-based. The following applies: Lodderomyces parapsilosis, 571.
Experiment [17] relates to Cryptococcus neoformans 297. The experiment in a line: Sensititre YeastOne antifungal susceptibility test. The experiment is classed as cell-based. The following applies: Sensititre YeastOne; Cryptococcus neoformans 297 clinical isolate; read-out: MIC.
In experiment [18] the test system is Cr. laurentii 325m. The experiment in a line: Sensititre YeastOne antifungal susceptibility test. The experiment is classed as cell-based. Conditions: Papiliotrema laurentii; Sensititre YeastOne; Cr. laurentii 325m clinical isolate; read-out: MIC.
Experiment [19] deals with B16 (mouse melanoma cell line). The experiment in a line: MTT cytotoxicity assay. Format: cell-based. Conditions: Mus musculus, 72 h, three experiments, each in triplicate. The method, then: (§1) Experiments for determining the cytotoxic activity of the compound in MTT assays were performed as previously described. The following tumor cell lines were used for this study: HCT-116 (colon cancer cell line), B16 (mouse melanoma cell line), K-562 (leukemia cell line), MDA-MB-231 (breast cancer line), and MCF-7 (breast cancer cell). Human postnatal fibroblasts were used as a normal cell line, and doxorubicin was used as a positive control. The cell lines were cultured in Dulbecco modified Eagle’s medium supplemented with 5% fetal calf serum, 2 mM Lglutamine, 100 U/mL penicillin, and […] streptomycin at 37 °C, 5% CO2 in a humidified atmosphere. Experiments were carried out on cells in the logarithmic phase of growth. The peptide was dissolved in DMSO as a 10 mM stock solution, followed by serial dilutions in water immediately before the experiment. Briefly, cells (5 × 10^3 in […] of culture medium) were plated in a 96-well plate and treated with 0.1% DMSO (blank control) or with […] of the peptide (0.10‒50 μM; each concentration in duplicate) for 72 h. After incubation with peptide, […] of aqueous MTT solution (3-(4,5-dimethylthiazol-2-yl)-2,5-diphenyltetrazolium bromide, 5 mg/mL) were added into each well for 2‒3 h. Formazan was dissolved in DMSO, and the absorbance at 570 nm was measured. The cytotoxicity at a given EmiA concentration was calculated as the percentage of absorbance in wells with peptide-treated cells compared to that of blank control cells (100%). The IC50 (50% growth inhibitory concentration) was defined as the concentration of EmiA that inhibited MTT conversion by 50%. All the experiments were repeated three times, each time in triplicate. EmiA was tested at a range of concentrations, 0.1‒10 μM.

For experiment [20], the system named is HCT-116 (colon cancer cell line). Nature of the experiment: MTT cytotoxicity assay. Format: cell-based. Conditions: Homo sapiens, 72 h, three experiments, each in triplicate. The method, then:
as §1
A general note: Tetrazolium dyes change colour on reduction, which living cells bring about.

The test system of experiment [21] is HPF (human postnatal fibroblasts, normal cell line). Nature of the experiment: MTT cytotoxicity assay. The experiment is classed as cell-based. The following applies: Homo sapiens, Fibroblast; HPF normal fibroblasts; MTT, 72 h; three experiments, each in triplicate. The method, then:
as §1

Molecules are shown by their SMILES. Converted amounts (≈) assume the structure as drawn. Some results are limits rather than exact numbers.

As to `OC(Cn1cncn1)(Cn1cncn1)c1ccc(F)cc1F` [FZ, Fluconazole], the MIC worked out at 64 µg/mL (≈ 209 µM) in experiment [1]; 128 µg/mL (≈ 418 µM) in [2]; 64 µg/mL (≈ 209 µM) in experiment [4]; 128 µg/mL (≈ 418 µM) in [5]; 16 µg/mL (≈ 52.2 µM) in experiment [6]; 32 µg/mL (≈ 104 µM) in experiment [7]. For the same compound, the MIC in experiment [9] is above 256 µg/mL; in [10], above 256 µg/mL; in experiment [11], above 256 µg/mL; in [12], 256 µg/mL (≈ 836 µM); in experiment [13] it was above 256 µg/mL; in experiment [15] it was 64 µg/mL (≈ 209 µM). Further, the figures for the MIC in experiment [16], in experiment [17] and in experiment [18] were 128 µg/mL (≈ 418 µM), 16 µg/mL (≈ 52.2 µM) and 32 µg/mL (≈ 104 µM), respectively. In addition, the “MIC (class symbol)” value in experiment [3] and in experiment [14] was “R” each time. The “antifungal activity (in words)” value in experiment [8] is “little or no activity”.
Consider `COc1cccc2c1C(=O)c1c(O)c3c(c(O)c1C2=O)C[C@@](O)(C(=O)CO)C[C@@H]3O[C@H]1C[C@H](N)[C@H](O)[C@H](C)O1` [Doxorubicin], for which the half-inhibitory concentration (IC50) in experiment [19] was 600 ± 70 nM; in experiment [20] it was 200 ± 30 nM; in experiment [21], 200 ± 30 nM.

By MIC is commonly meant the lowest concentration that inhibits growth of the organism. What is called IC50 is the concentration needed to halve the response being measured. Read a low IC50 as greater potency.
